What follows are molecules tested on Human monocyte cell line THP-1 (assay: Detection of THP-1 cell pyroptosis (Caspase-Glo 1 Inflammasome Assay)). Details: Homo sapiens, THP-1, THP-1 pyroptosis, 20 nM PMA 48 h, 1 μg/mL LPS, compound 3 h.
Format: cell-based
Procedure: Human monocyte cell line THP-1 (ATCC® TB-202TM) was cultured in RPMI-1640 culture medium containing […], 1 mM pyruvic acid, 0.05 mM β-mercaptoethanol and 10% double antibody under the culture conditions of 37° C. and […].
Cell counting was performed, THP-1 cells were seeded into a 96-well plate at 50000 per well, and 20 nM PMA was added for inducing at 37° C./5% CO2 for 48 h. The culture medium was then discarded, and 100 μL of serum-free RPMI-1640 medium containing 1 μg/mL LPS was added. 5 μL of compound or solvent control was added and 3-fold diluted in gradient from a maximum concentration of 10 μM, and 10 gradient concentrations were set. The mixtures were incubated at 37° C./5% CO2 for 3 h. After the incubation, the mixtures were centrifuged at 300 g for 5 min, and the culture medium was discarded. Pyroptosis assay was performed according to specific steps described in instructions of Caspase-Glo® 1 Inflammasome Assay kit. IC50 was calculated using GraphPad Prism7.0 software.
`CC(c1ccc2c(c1NC(=O)NS(=O)(=O)c1cc(C(C)(C)O)co1)CCC2)C1CC1` (stereo not shown) [Compound 1, N-((5-(1-cyclopropylethyl)-2,3-dihydro-1H-inden-4-yl)carbamoyl)-4-(2-hydroxypropan-2-yl)furan-2-sulfonamide] was tested, and the IC50 was 100 to 500 nM. Work on `CC(C)(O)c1coc(S(=O)(=O)NC(=O)Nc2c(CC3CC3)ccc3c2CCC3)c1` [Compound 3, N-((5-(cyclopropylmethyl)-2,3-dihydro-1H-inden-4-yl)carbamoyl)-4-(2-hydroxypropan-2-yl)furan-2-sulfonamide] yielded an IC50 of 100 to 500 nM. `COc1cc(-c2cc(F)cc(C(C)C3CC3)c2NC(=O)NS(=O)(=O)c2cc(C(C)(C)O)co2)ccn1` (stereo not shown) [Compound 4, N-((2-(1-cyclopropylethyl)-4-fluoro-6-(2-methoxypyridin-4-yl)phenyl)carbamoyl)-4-(2-hydroxypropan-2-yl)furan-2-sulfonamide] showed an IC50 of 100 to 500 nM. For `C[C@@H](c1ccc2c(c1NC(=O)NS(=O)(=O)c1cc(C(C)(C)O)co1)CCC2)C1CC1` [Compound 5, (R)-N-((5-(1-cyclopropylethyl)-2,3-dihydro-1H-inden-4-yl)carbamoyl)-4-(2-hydroxypropan-2-yl)furan-2-sulfonamide], the IC50 was ≤ 100 nM. Work on `CC(c1ccc2c(c1NC(=O)NS(=O)(=O)c1cc(C(C)(C)O)co1)CCC2)C1CCC1` (stereo not shown) [Compound 15, N-((5-(1-cyclobutylethyl)-2,3-dihydro-1H-inden-4-yl)carbamoyl)-4-(2-hydroxypropan-2-yl)furan-2-sulfonamide] yielded an IC50 of 100 to 500 nM. `CC(c1ccc2c(c1NC(=O)NS(=N)(=O)c1cc(C(C)(C)O)co1)CCC2)C1CCC1` (stereo not shown) [Compound 16, N-((5-(1-cyclobutylethyl)-2,3-dihydro-1H-inden-4-yl)carbamoyl)-4-(2-hydroxypropan-2-yl)furan-2-sulfonimidamide] was tested, and the IC50 was ≤ 100 nM. `CC(C)(O)c1coc(S(=O)(=O)NC(=O)Nc2c(CC3CCC3)ccc3c2CCC3)c1` [Compound 17, N-((5-(cyclobutylmethyl)-2,3-dihydro-1H-inden-4-yl)carbamoyl)-4-(2-hydroxypropan-2-yl)furan-2-sulfonamide] was tested, and the IC50 was 100 to 500 nM. `Cc1oc(S(=O)(=O)NC(=O)Nc2c([C@H](C)C3CC3)ccc3c2CCC3)cc1C(C)(C)O` [Compound 22, (R)-N-((5-(1-cyclopropylethyl)-2,3-dihydro-1H-inden-4-yl)carbamoyl)-4-(2-hydroxypropan-2-yl)-5-methylfuran-2-sulfonamide] was tested, and the IC50 was ≤ 100 nM. `C[C@@H](c1ccc2c(c1NC(=O)NS(=O)(=O)c1cc(C(C)(C)O)co1)CCC2)C1CCCC1` [Compound 26, (R)-N-((5-(1-cyclopentylethyl)-2,3-dihydro-1H-inden-4-yl)carbamoyl)-4-(2-hydroxypropan-2-yl)furan-2-sulfonamide] showed an IC50 of 1000 to 5000 nM. Work on `CC(C)(O)c1coc(S(=O)(=O)NC(=O)Nc2c(CC3CCCC3)ccc3c2CCC3)c1` [Compound 28, N-((5-(cyclopentylmethyl)-2,3-dihydro-1H-inden-4-yl)carbamoyl)-4-(2-hydroxypropan-2-yl)furan-2-sulfonamide] yielded an IC50 of 500 to 1000 nM. `[2H]c1cc([C@@H](C)C2CC2)c(NC(=O)NS(=O)(=O)c2cc(C(C)(C)O)co2)c2c1CCC2` [Compound 30, (S)-N-((5-(1-cyclopropylethyl)-2,3-dihydro-1H-inden-4-yl-7-d)carbamoyl)-4-(2-hydroxypropan-2-yl)furan-2-sulfonamide] was tested, and the IC50 was 1000 to 5000 nM. `CC(C)(O)c1coc(S(=O)(=O)NC(=O)Nc2c(CC3CCC3)ccc3c2CC3)c1` [Compound 33, N-((3-(cyclobutylmethyl)bicyclo[4.2.0]octa-1(6),2,4-trien-2-yl)carbamoyl)-4-(2-hydroxypropan-2-yl)furan-2-sulfonamide] showed an IC50 of 100 to 500 nM. Molecule `C[C@H](c1ccc2c(c1NC(=O)NS(=O)(=O)c1cc(C(C)(C)O)co1)CC2)C1CC1` [Compound 35, (S)-N-((3-(1-cyclopropylethyl)bicyclo[4.2.0]octa-1(6),2,4-trien-2-yl)carbamoyl)-4-(2-hydroxypropan-2-yl)furan-2-sulfonamide] has an IC50 of 1000 to 5000 nM. In the case of `C[C@@H](c1ccc2c(c1NC(=O)NS(=O)(=O)c1cc(C(C)(C)O)co1)CC2)C1CC1` [Compound 37, (R)-N-((3-(1-cyclopropylethyl)bicyclo[4.2.0]octa-1(6),2,4-trien-2-yl)carbamoyl)-4-(2-hydroxypropan-2-yl)furan-2-sulfonamide], the IC50 is reported as 100 to 500 nM. Molecule `C=C(c1c(C)cc2c(c1NC(=O)NS(=O)(=O)c1cc(C(C)(C)O)co1)CCC2)C1CC1` [Compound 40, N-((5-(1-cyclopropylvinyl)-6-methyl-2,3-dihydro-1H-inden-4-yl)carbamoyl)-4-(2-hydroxypropan-2-yl)furan-2-sulfonamide] has an IC50 of 1000 to 5000 nM. For `C[C@@H](c1cc(C#N)c2c(c1NC(=O)NS(=O)(=O)c1cc(C(C)(C)O)co1)CCC2)C1CC1` [Compound 45, (R)-N-((7-cyano-5-(1-cyclopropylethyl)-2,3-dihydro-1H-inden-4-yl)carbamoyl)-4-(2-hydroxypropan-2-yl)furan-2-sulfonamide], the IC50 was 100 to 500 nM. `C[C@H](c1cc(C#N)c2c(c1NC(=O)NS(=O)(=O)c1cc(C(C)(C)O)co1)CCC2)C1CC1` [Compound 47, (S)-N-((7-cyano-5-(1-cyclopropylethyl)-2,3-dihydro-1H-inden-4-yl)carbamoyl)-4-(2-hydroxypropan-2-yl)furan-2-sulfonamide] gave an IC50 of 500 to 1000 nM. Molecule `C[C@H](c1ccc2c(c1NC(=O)N[S@@](=N)(=O)c1cc(C(C)(C)O)cs1)CCC2)C1CC1` [Compound 54-1] has an IC50 of 1000 to 5000 nM. Molecule `C[C@H](c1ccc2c(c1NC(=O)N[S@](=N)(=O)c1cc(C(C)(C)O)cs1)CCC2)C1CC1` [Compound 54-2] has an IC50 of 100 to 500 nM. In the case of `C[C@@H](c1ccc2c(c1NC(=O)N[S@@](=N)(=O)c1cc(C(C)(C)O)cs1)CCC2)C1CC1` [Compound 55-1], the IC50 is reported as 100 to 500 nM. `C[C@H](c1ccc2c(c1NC(=O)NS(=O)(=O)c1ccc(C(C)(C)O)s1)CCC2)C1CC1` [Compound 57, (S)-N-((5-(1-cyclopropylethyl)-2,3-dihydro-1H-inden-4-yl)carbamoyl)-5-(2-hydroxypropan-2-yl)thiophene-2-sulfonamide] showed an IC50 of 1000 to 5000 nM. Molecule `C[C@@H](c1ccc2c(c1NC(=O)NS(=O)(=O)c1ccc(C(C)(C)O)s1)CCC2)C1CC1` [Compound 58, (R)-N-((5-(1-cyclopropylethyl)-2,3-dihydro-1H-inden-4-yl)carbamoyl)-5-(2-hydroxypropan-2-yl)thiophene-2-sulfonamide] has an IC50 of 1000 to 5000 nM. `C[C@@H](c1ccc2c(c1NC(=O)NS(=O)(=O)c1cc(C3(O)CC3)co1)CCC2)C1CC1` [Compound 59, (R)-N-((5-(1-cyclopropylethyl)-2,3-dihydro-1H-inden-4-yl)carbamoyl)-4-(1-hydroxycyclopropyl)furan-2-sulfonamide] was tested, and the IC50 was 500 to 1000 nM. For `C[C@H](c1ccc2c(c1NC(=O)NS(=O)(=O)c1cc(C3(O)CC3)co1)CCC2)C1CC1` [Compound 60, (S)-N-((5-(1-cyclopropylethyl)-2,3-dihydro-1H-inden-4-yl)carbamoyl)-4-(1-hydroxycyclopropyl)furan-2-sulfonamide], the IC50 was 100 to 500 nM. Molecule `O=C(Nc1c(CC2CCC2)ccc2c1CCC2)NS(=O)(=O)c1cc(C2(O)CC2)co1` [Compound 61, N-((5-(cyclobutylmethyl)-2,3-dihydro-1H-inden-4-yl)carbamoyl)-4-(1-hydroxycyclopropyl)furan-2-sulfonamide] has an IC50 of 1000 to 5000 nM.

Same assay, conditions: THP-1 pyroptosis, 20 nM PMA 48 h, 1 μg/mL LPS, compound 3 h
`Cc1oc(S(=N)(=O)NC(=O)Nc2c(C(C)C3CC3)ccc3c2CCC3)cc1C(C)(C)O` (single isomer, unassigned) [Compound 24-1, RS- and SS-N-((5-(1-cyclopropylethyl)-2,3-dihydro-1H-inden-4-yl)carbamoyl)-4-(2-hydroxypropan-2-yl)-5-methylfuran-2-sulfonimidamide] showed an IC50 of 100 to 500 nM. Work on `[2H]c1cc([C@@H](C)C2CC2)c(NC(=O)NS(=N)(=O)c2cc(C(C)(C)O)co2)c2c1CCC2` (single isomer, unassigned) [Compound 32-1, (RS, SC)- and (SS, SC)-N-((5-(1-cyclopropylethyl)-2,3-dihydro-1H-inden-4-yl-7-d)carbamoyl)-4-(2-hydroxypropan-2-yl)furan-2-sulfonimidamide] yielded an IC50 of 1000 to 5000 nM. In the case of `CC(C)(O)c1coc(S(=N)(=O)NC(=O)Nc2c(CC3CCC3)ccc3c2CC3)c1` (single isomer, unassigned) [Compound 34-1, RS- and SS-N-((3-(cyclobutylmethyl)bicyclo[4.2.0]octa-1(6),2,4-trien-2-yl)carbamoyl)-4-(2-hydroxypropan-2-yl)furan-2-sulfonimidamide], the IC50 is reported as 5000 to 10000 nM. For `CC(C)(O)c1coc(S(=N)(=O)NC(=O)Nc2c(CC3CCC3)ccc3c2CC3)c1` (single isomer, unassigned) [Compound 34-2, RS- and SS-N-((3-(cyclobutylmethyl)bicyclo[4.2.0]octa-1(6),2,4-trien-2-yl)carbamoyl)-4-(2-hydroxypropan-2-yl)furan-2-sulfonimidamide], the IC50 was ≤ 100 nM. For `CC(C)c1cccc(CC2CCC2)c1NC(=O)NS(=N)(=O)c1cc(C(C)(C)O)co1` (single isomer, unassigned) [Compound 70-1, RS- and SS-N-((2-(cyclobutylmethyl)-6-isopropylphenyl)carbamoyl)-4-(2-hydroxypropan-2-yl)furan-2-sulfonimidamide], the IC50 was ≤ 100 nM. In the case of `CC(C)c1cccc(CC2CCC2)c1NC(=O)NS(=N)(=O)c1cc(C(C)(C)O)co1` (single isomer, unassigned) [Compound 70-2, RS- and SS-N-((2-(cyclobutylmethyl)-6-isopropylphenyl)carbamoyl)-4-(2-hydroxypropan-2-yl)furan-2-sulfonimidamide], the IC50 is reported as 1000 to 5000 nM.

Source: patent US11976054B2, “Amide derivative and preparation method therefore and use thereof in medicine” (Chengdu Baiyu Pharmaceutical Co., Ltd., priority 2019, dated 2024)
